Drawing on US10005767B2, “Compositions and methods for inhibition of the JAK pathway” (Rigel Pharmaceuticals, Inc., priority 2009, dated 2018), this text covers IC50 for 31 compounds.

Where a name gives a salt, the structure may show the parent alone. Some results are limits rather than exact numbers.

For the first test, the system named is human primary T-cells, IL-2 stimulated proliferation (JAK-1 and JAK-3 dependent; reported as JAK3 activity). In words: Human primary T-cell proliferation stimulated by IL-2 (Example 3). Format: cell-based. The note with it: Homo sapiens, T-cell, tested under conditions described in Example 3 (IL-2 stimulated human primary T-cell proliferation); read-out: ability to inhibit JAK3 activity, IC50 range (Table V). A digest of the protocol:
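Peripheral-blood human T-cells pre-activated via TCR/CD28, IL-2-starved overnight, then cultured 72 h at 37 °C with compound in Yssel's medium containing IL-2 (80 U/mL in cell suspension). Proliferation read as viable-cell ATP by CellTiter-Glo luminescence; reduction versus control taken as JAK pathway inhibition.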
For `Cc1cnc(Nc2ccc(N3C[C@@H](C)N[C@@H](C)C3)nc2)nc1Nc1ccc2oc(=O)[nH]c2c1` [II-131, N2-[2-(cis-3,5-dimethylpiperazino)pyridin-5-yl]-5-methyl-N4-(2-oxo-2,3-dihydro-1,3-benzoxazol-5-yl)-2,4-pyrimidinediamine], the IC50 is < 0.5 µM. On the same count and under the same terms, as for `COc1cc(Nc2ncc(C)c(Nc3ccc4oc(=O)[nH]c4c3)n2)ccc1C(=O)N1CCCC1` [Compound I-268, 5-(2-(3-methoxy-4-(pyrrolidine-1-carbonyl)phenylamino)-5-methylpyrimidin-4-ylamino)benzo[d]oxazol-2(3H)-one], the figure is < 0.5 µM; as for `COc1cc(Nc2ncc(C)c(Nc3cc(F)c4oc(=O)[nH]c4c3)n2)cc(C(F)(F)F)c1` [Compound I-251, 7-fluoro-5-(2-(3-methoxy-5-(trifluoromethyl)phenylamino)-5-methylpyrimidin-4-ylamino)benzo[d]oxazol-2(3H)-one], < 0.5 µM; as for `Cc1cnc(Nc2ccc3c(c2)OCC(=O)N3)nc1Nc1ccc2oc(=O)[nH]c2c1` [IV-32, 7-(5-methyl-4-(2-oxo-2,3-dihydrobenzo[d]oxazol-5-ylamino)pyrimidin-2-ylamino)-2H-benzo[b][1,4]oxazin-3 (4H)-one], < 0.5 µM. On the same count and under the same terms, as for `COc1cc(Nc2ncc(C)c(Nc3ccc4oc(=O)[nH]c4c3)n2)c(F)cc1F` [Compound I-193, 5-[2-(2,4-Difluoro-5-methoxy-phenylamino)-5-methyl-pyrimidin-4-ylamino]-3H-benzooxazol-2-one], the figure is 0.5 to 5 µM; as for `COc1cc(Nc2ncc(C)c(Nc3ccc4oc(=O)[nH]c4c3)n2)cc(C(F)F)c1` [Compound I-273, 5-(2-(3-(difluoromethyl)-5-methoxyphenylamino)-5-methylpyrimidin-4-ylamino)benzo[d]oxazol-2(3H)-one], < 0.5 µM. Still for that read-out and setting: as for `Cc1cnc(Nc2ccc(N3CCC(NC(=O)C(F)(F)F)C3)nc2)nc1Nc1ccc2oc(=O)[nH]c2c1` (stereo not shown) [II-83, 2,2,2-trifluoro-N-(1-(5-(5-methyl-4-(2-oxo-2,3-dihydrobenzo[d]oxazol-5-ylamino)pyrimidin-2-ylamino)pyridin-2-yl)pyrrolidin-3-yl)acetamide], the figure is < 0.5 µM; as for `CCN(CC)C1CCN(c2ccc(Nc3ncc(C)c(Nc4ccc5oc(=O)[nH]c5c4)n3)cn2)C1` (stereo not shown) [II-82, 5-(2-(6-(3-(diethylamino)pyrrolidin-1-yl)pyridin-3-ylamino)-5-methylpyrimidin-4-ylamino)benzo[d]oxazol-2(3H)-one], < 0.5 µM; as for `Cc1cnc(Nc2ccc(NS(C)(=O)=O)nc2)nc1Nc1ccc2oc(=O)[nH]c2c1` [II-78, N-(5-(5-methyl-4-(2-oxo-2,3-dihydrobenzo[d]oxazol-5-ylamino)pyrimidin-2-ylamino)pyridin-2-yl)methanesulfonamide], < 0.5 µM.

For `Cc1cnc(Nc2ccc3c(C)n[nH]c3c2)nc1Nc1ccc2oc(=O)[nH]c2c1` [IV-48, 5-methyl-N2-(3-methylindazol-6-yl)-N4-(2-oxo-2,3-dihydro-1,3-benzoxazol-5-yl)-2,4-pyrimidinediamine], the IC50 was < 0.5 µM. On to `Cc1cnc(Nc2ccc(C(N)=O)c(N3CCCC3)c2)nc1Nc1ccc2oc(=O)[nH]c2c1` [Compound I-136, 4-[5-Methyl-4-(2-oxo-2,3-dihydro-benzooxazol-5-ylamino)-pyrimidin-2-ylamino]-2-pyrrolidin-1-yl-benzamide], for which the IC50 was < 0.5 µM. Still for that read-out and setting: as for `Cc1cnc(Nc2ccc3c(c2)CCNC3=O)nc1Nc1ccc2oc(=O)[nH]c2c1` [IV-15, 6-[5-Methyl-4-(2-oxo-2,3-dihydro-benzooxazol-5-ylamino)-pyrimidin-2-ylamino]-3,4-dihydro-2H-isoquinolin-1-one], the figure is < 0.5 µM; as for `Cc1cnc(Nc2cc(C)c(OCCN3CCOCC3)c(C)c2)nc1Nc1ccc2oc(=O)[nH]c2c1` [Compound I-459, 5-(2-(3,5-dimethyl-4-(2-morpholinoethoxy)phenylamino)-5-methylpyrimidin-4-ylamino)benzo[d]oxazol-2(3H)-one], < 0.5 µM. Still for that read-out and setting: as for `Cc1cnc(Nc2cc(C(=O)NC3CCC3)cc(C(F)(F)F)c2)nc1Nc1ccc2oc(=O)[nH]c2c1` [Compound I-469, N-Cyclobutyl-3-[5-methyl-4-(2-oxo-2,3-dihydro-benzooxazol-5-ylamino)-pyrimidin-2-ylamino]-5-trifluoromethyl-benzamide], the figure is < 0.5 µM; as for `Cc1cnc(Nc2ccc(N3CCC(N4CCOCC4)C3)nc2)nc1Nc1ccc2oc(=O)[nH]c2c1` (stereo not shown) [II-84, 5-(5-methyl-2-(6-(3-morpholinopyrrolidin-1-yl)pyridin-3-ylamino)pyrimidin-4-ylamino)benzo[d]oxazol-2(3H)-one], < 0.5 µM; as for `COc1cc(Nc2ncc(C)c(Nc3ccc4oc(=O)[nH]c4c3)n2)ccc1Cl` [Compound I-181, 5-[2-(4-Chloro-3-methoxy-phenylamino)-5-methyl-pyrimidin-4-ylamino]-3H-benzooxazol-2-one], < 0.5 µM.

As to `Cc1cnc(Nc2cccc(C=O)c2)nc1Nc1ccc2oc(=O)[nH]c2c1` [Compound I-1, N4-(benzo[d]oxazol-2(3H)-on-5-yl)-N2-(3-formylphenyl)-5-methylpyrimidine-2,4-diamine], the IC50 was in the range of 0.5 to 5 µM. The same measure, in the same setting: as for `Cc1cnc(Nc2ccc3[nH]nc(C)c3c2)nc1Nc1ccc2oc(=O)[nH]c2c1` [IV-49, 5-methyl-N2-(3-methylindazol-5-yl)-N4-(2-oxo-2,3-dihydro-1,3-benzoxazol-5-yl)-2,4-pyrimidinediamine], the figure is < 0.5 µM; as for `Cc1cnc(Nc2cc(F)cc(N3CCOCC3)c2)nc1Nc1ccc2oc(=O)[nH]c2c1` [Compound I-240, 5-(2-(3-fluoro-5-morpholinophenylamino)-5-methylpyrimidin-4-ylamino)benzo[d]oxazol-2(3H)-one], < 0.5 µM. Still for that read-out and setting: as for `Cc1cnc(Nc2ccc3cnn(C)c3c2)nc1Nc1ccc2oc(=O)[nH]c2c1` [IV-41, 5-methyl-N2-(1-methylindazol-6-yl)-N4-(2-oxo-2,3-dihydro-1,3-benzoxazol-5-yl)-2,4-pyrimidinediamine], the figure is < 0.5 µM. Turning to `CCN(CC)CCOc1ccc(Nc2ncc(C)c(Nc3ccc4oc(=O)[nH]c4c3)n2)cc1` [Compound I-449, 5-{2-[4-(2-Diethylamino-ethoxy)-phenylamino]-5-methyl-pyrimidin-4-ylamino}-3H-benzooxazol-2-one], the IC50 is < 0.5 µM.

The test is the same for the next values; noted with them: tested under conditions described in Example 3 (IL-2 stimulated human primary T-cell proliferation); read-out: ability to inhibit JAK3 activity, IC50 range (Table V).
For the compound `Cn1c(=O)oc2cc(Nc3nc(Nc4cccc(S(N)(=O)=O)c4)ncc3F)ccc21` [Compound I-57, N2-((3-aminosulfonyl)phenyl)-N4-(3-methyl-2-oxo-2,3-dihydrobenzo[d]oxazol-6-yl)-5-fluoropyrimidine-2,4-diamine], the IC50 is < 0.5 µM. Still for that read-out and setting: as for `Cc1cnc(Nc2ccc(Br)cc2)nc1Nc1ccc2oc(=O)[nH]c2c1` [Compound I-288, N2-(4-bromo)phenyl-5-methyl-N4-(2-oxo-2,3-dihydro-1,3-benzoxazol-5-yl)-2,4-pyrimidinediamine], the figure is < 0.5 µM; as for `Cc1cnc(Nc2cccc(S(N)(=O)=O)c2)nc1Nc1ccc2c(c1)oc(=O)n2C` [Compound I-63, N2-((3-aminosulfonyl)phenyl)-N4-(3-methyl-2-oxo-2,3-dihydrobenzo[d]oxazol-6-yl)-5-methylpyrimidine-2,4-diamine], < 0.5 µM; as for `Cc1cnc(Nc2ccc(N3CCN(C)CC3)c(CO)c2)nc1Nc1ccc2oc(=O)[nH]c2c1` [Compound I-331, N2-[3-hydroxymethyl-4-(4-methylpiperazino)]phenyl-5-methyl-N4-(2-oxo-2,3-dihydro-1,3-benzoxazol-5-yl)-2,4-pyrimidinediamine], < 0.5 µM. Still for that read-out and setting: as for `CC(=O)N(C)c1ccc(Nc2ncc(C)c(Nc3ccc4oc(=O)[nH]c4c3)n2)cc1` [Compound I-309, N2-[4-(N-acetyl-N-methyl)amino]phenyl-5-methyl-N4-(2-oxo-2,3-dihydro-1,3-benzoxazol-5-yl)-2,4-pyrimidinediamine], the figure is < 0.5 µM.

With `Cn1c(=O)oc2cc(Nc3nc(Nc4cccc(S(C)(=O)=O)c4)ncc3F)ccc21` [Compound I-59, N2-((3-methylsulfonyl)phenyl)-N4-(3-methyl-2-oxo-2,3-dihydrobenzo[d]oxazol-6-yl)-5-fluoropyrimidine-2,4-diamine], the half-maximal inhibitory concentration (IC50) was < 0.5 µM. Still for that read-out and setting: as for `Cc1cnc(Nc2ccc(NS(C)(=O)=O)cc2)nc1Nc1ccc2oc(=O)n(C(C)C)c2c1` [Compound I-10, N4-(3-isopropylbenzo[d]oxazol-2(3H)-on-5-yl)-N2-((4-methylsulfonylamino)phenyl)-5-methylpyrimidine-2,4-diamine], the figure is < 0.5 µM.

Consider `Cc1cnc(Nc2cccc(S(C)(=O)=O)c2)nc1Nc1ccc2oc(=O)n(C)c2c1` [Compound I-69, N2-((3-methylsulfonyl)phenyl)-N4-(3-methyl-2-oxo-2,3-dihydrobenzo[d]oxazol-5-yl)-5-methylpyrimidine-2,4-diamine], for which the IC50 was < 0.5 µM.

For the compound `Cc1cnc(Nc2ccc(N3CCOCC3)nc2)nc1Nc1ccc2oc(=O)[nH]c2c1` [II-17, N4-(benzo[d]oxazol-2(3H)-on-5-yl)-N2-((2-morpholinyl)pyridin-5-yl)-5-methylpyrimidine-2,4-diamine], the IC50 is < 0.5 µM.

Staying with this test, now noted: tested under conditions described in Example 3 (IL-2 stimulated human primary T-cell proliferation); trifluoroacetic acid salt; read-out: ability to inhibit JAK3 activity, IC50 range (Table V).
For `Cc1cnc(Nc2ccncc2F)nc1Nc1ccc2oc(=O)[nH]c2c1` [IV-64, N2-(3-fluoropyridin-4-yl)-5-methyl-N4-(2-oxo-2,3-dihydro-1,3-benzoxazol-5-yl)-2,4-pyrimidinediamine trifluoroacetic acid salt], the IC50 lay within 0.5 to 5 µM.
